In paper PMC5746060, “General and Modular Strategy for Designing Potent, Selective, and Pharmacologically Compliant Inhibitors of Rhomboid Proteases” (Cell Chemical Biology, 2017):
Starred links: 1 amine or outer side, 2 acyl side, 3 side chain; linkers in the order of their positions; H or OH if unused. Non-standard residues stand in square brackets, D forms with d. Residues, ends and D or L forms follow the SMILES beside them. *: point of attachment. NH(4-phenylbutyl) = c1ccc(CCCCN*)cc1; X1 = C[C@H](N[*:1])C(=O)C(=O)[*:2]; NHPhenethyl = c1ccc(CCN*)cc1

Assays:
Assay in all cases: activity-based probe competition assay, rhomboid panel
[1] = tested on: AaROM; format: biochemical, Aquifex aeolicus; settings: 50 μM and 0.5 μM
Source text: (§1) Any enzyme inhibitors to be used as specific tools for cell biology or as starting points for drug development must show sufficient level of selectivity toward their intended target. This is particularly important for compounds that react with the catalytic nucleophile common to many serine hydrolases. […] To map the selectivity of peptidyl ketoamides more objectively and widely, we employed activity-based probe (ABP) competition assays that enable a more general and substrate-independent measurement of inhibitory potency, because they rely solely on the competition between a fluorescently labeled activity-based probe and the tested inhibitor ([Nguyen et al., 2015], [Serim et al., 2012]). […]
(§2) Figure 5 Selectivity of Peptidyl Ketoamides (A) Selectivity of compounds 9, 10, and 11 for nine rhomboid proteases was profiled using activity-based probe competition assay at 50 μM and 0.5 μM concentration. […] (B) Selectivity of compounds 9, 10, and 11 against human serine hydrolases was analyzed using EnPlex as described ([Bachovchin et al., 2014]).
(§3) For inhibitor selectivity profiling against rhomboid proteases ([Wolf et al., 2015]), 400 ng of a purified protein preparation of E. coli GlpG was diluted in 30 μL of reaction buffer (20 mM HEPES, pH 7.4, with 0.05% (w/v) DDM). […] Gels were scanned on a Typhoon Trio+ and analyzed using ImageJ. […]

[2] = molecular target: T1, DmRho1 (Drosophila melanogaster, UniProt P20350); format: biochemical; settings: 50 μM and 0.5 μM
T1 construct: made in house
T1 sequence (P20350 1-355): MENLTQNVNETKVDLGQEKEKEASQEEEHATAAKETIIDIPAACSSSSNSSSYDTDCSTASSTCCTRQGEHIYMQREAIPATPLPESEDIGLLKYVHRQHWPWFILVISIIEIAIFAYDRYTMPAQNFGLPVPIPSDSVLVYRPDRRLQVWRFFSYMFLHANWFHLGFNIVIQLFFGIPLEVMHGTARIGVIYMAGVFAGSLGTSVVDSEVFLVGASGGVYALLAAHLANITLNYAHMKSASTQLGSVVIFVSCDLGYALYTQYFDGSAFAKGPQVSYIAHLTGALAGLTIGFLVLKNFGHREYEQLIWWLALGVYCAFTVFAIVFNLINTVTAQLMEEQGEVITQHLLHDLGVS
Source text: (§4) Any enzyme inhibitors to be used as specific tools for cell biology or as starting points for drug development must show sufficient level of selectivity toward their intended target. This is particularly important for compounds that react with the catalytic nucleophile common to many serine hydrolases. […] To map the selectivity of peptidyl ketoamides more objectively and widely, we employed activity-based probe (ABP) competition assays that enable a more general and substrate-independent measurement of inhibitory potency, because they rely solely on the competition between a fluorescently labeled activity-based probe and the tested inhibitor ([Nguyen et al., 2015], [Serim et al., 2012]). The assays we employed used fluorophosphonate ABPs that target the catalytic serine of a wide-range of serine hydrolases ([Bachovchin et al., 2014]), including rhomboids ([Xue et al., 2012]), and are thus very practical general detection reagents even for serine hydrolases for which sensitive substrates might not be available.
(§5) Figure 5 Selectivity of Peptidyl Ketoamides (A) Selectivity of compounds 9, 10, and 11 for nine rhomboid proteases was profiled using activity-based probe competition assay at 50 μM and 0.5 μM concentration. The upper limit of enzyme concentration was 0.4 μM. (B) Selectivity of compounds 9, 10, and 11 against human serine hydrolases was analyzed using EnPlex as described ([Bachovchin et al., 2014]).
(§6) For inhibitor selectivity profiling against rhomboid proteases ([Wolf et al., 2015]), 400 ng of a purified protein preparation of E. coli GlpG was diluted in 30 μL of reaction buffer (20 mM HEPES, pH 7.4, with 0.05% (w/v) DDM). For other rhomboids, amounts were taken that gave similar labeling intensity during profiling. Rhomboids were incubated for 30 min at room temperature with the indicated concentration of compound, 100 μM DCI as positive control, or an equal volume of DMSO as negative control. Next, TAMRA-FP serine hydrolase probe (Thermo Fisher #88318) was added to a final concentration of 1 ìM and incubated for 2 h at 37°C in the dark. The reaction was stopped by addition of 4× Laemmli buffer and the reaction mixture was resolved on 15% SDS-PAGE. Gels were scanned on a Typhoon Trio+ and analyzed using ImageJ. The intensity of each rhomboid protease band calculated by ImageJ was normalized against its corresponding DMSO-treated counterpart (100% activity) to indicate the residual activity left after inhibition. The remaining activity was used to calculate the percentage of inhibition depicted in the heatmap. Selectivity profiles against human serine hydrolases were determined by EnPlex as described previously ([Bachovchin et al., 2014]).

[3] = molecular target: T2, HiGlpG (Haemophilus influenzae, UniProt P44783); format: biochemical; settings: 50 μM and 0.5 μM; outcompeted the ABP even at 500 nM
T2 construct: made in house
T2 sequence (P44783 whole entry): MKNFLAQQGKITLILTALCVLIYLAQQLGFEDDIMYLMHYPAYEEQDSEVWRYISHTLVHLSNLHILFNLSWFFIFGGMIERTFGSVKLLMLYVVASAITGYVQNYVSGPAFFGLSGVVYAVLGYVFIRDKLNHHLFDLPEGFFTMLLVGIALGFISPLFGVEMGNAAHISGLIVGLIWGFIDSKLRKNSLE
Source text: as §4, §5, §6

[4] = molecular target: T3, MmRHBDL3 (Mus musculus, UniProt P58873); format: biochemical; settings: 50 μM and 0.5 μM
T3 construct: made in house
T3 sequence (P58873 1-404): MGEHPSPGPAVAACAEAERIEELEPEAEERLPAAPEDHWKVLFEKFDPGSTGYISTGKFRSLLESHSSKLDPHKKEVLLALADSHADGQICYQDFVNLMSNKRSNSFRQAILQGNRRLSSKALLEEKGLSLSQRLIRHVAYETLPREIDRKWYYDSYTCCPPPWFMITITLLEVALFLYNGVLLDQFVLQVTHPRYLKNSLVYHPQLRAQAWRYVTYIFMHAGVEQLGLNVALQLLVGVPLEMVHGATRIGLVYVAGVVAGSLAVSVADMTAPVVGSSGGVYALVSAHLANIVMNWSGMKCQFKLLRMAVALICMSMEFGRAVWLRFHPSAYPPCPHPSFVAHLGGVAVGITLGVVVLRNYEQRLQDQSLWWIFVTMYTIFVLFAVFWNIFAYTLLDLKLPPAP
Source text: as §4, §5, §6

[5] = molecular target: T4, AarA (Providencia stuartii, UniProt P46116); format: biochemical; settings: 50 μM and 0.5 μM; outcompeted the ABP even at 500 nM
T4 construct: made in house
T4 sequence (P46116 1-281): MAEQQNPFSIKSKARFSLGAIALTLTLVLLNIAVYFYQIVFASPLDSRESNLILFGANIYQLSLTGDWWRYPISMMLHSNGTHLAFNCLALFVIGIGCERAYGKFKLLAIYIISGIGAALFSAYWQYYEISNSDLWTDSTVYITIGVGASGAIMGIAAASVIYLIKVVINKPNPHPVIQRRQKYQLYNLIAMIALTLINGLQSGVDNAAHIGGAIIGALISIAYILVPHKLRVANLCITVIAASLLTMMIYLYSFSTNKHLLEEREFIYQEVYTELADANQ
Source text: as §4, §5, §6

[6] = tested on: MjROM; format: biochemical, Methanocaldococcus jannaschii; settings: 50 μM and 0.5 μM; outcompeted the ABP even at 500 nM
Source text: as §1, §2, §3

SMILES | competition with ABP labeling of AaROM [1] | competition with ABP labeling of DmRho1 [2] | competition with ABP labeling of HiGlpG [3] | competition with ABP labeling of MmRHBDL3 [4] | competition with ABP labeling of AarA [5] | competition with ABP labeling of MjROM [6]
CC(=O)N[C@@H](CCCNC(=N)N)C(=O)N[C@H](C(=O)N[C@@H](CCCNC(=N)N)C(=O)N[C@@H](Cc1c[nH]cn1)C(=O)N[C@@H](C)C(=O)C(=O)NCCc1ccccc1)C(C)C [compound 9, Ac-RVRHA-CONH-phenylethyl] (Ac-RVRH[X1]-NHPhenethyl) | none of these compounds were able to compete | none of these compounds were able to compete | potently competed | none of these compounds were able to compete | potently competed | potently competed
CC(=O)N[C@@H](CCCNC(=N)N)C(=O)N[C@H](C(=O)N[C@@H](CCCNC(=N)N)C(=O)N[C@@H](Cc1c[nH]cn1)C(=O)N[C@@H](C)C(=O)C(=O)NCCCCc1ccccc1)C(C)C [compound 11, Ac-RVRHA-CONH-phenylbutyl] (Ac-RVRH[X1]-{NH(4-phenylbutyl)}) | none of these compounds were able to compete | none of these compounds were able to compete | potently competed | none of these compounds were able to compete | potently competed | potently competed
